Experimental data taken from patent US20190119200A1, “TERTIARY AMIDES AND METHOD OF USE” (AbbVie Inc., priority 2016, published 2019).

Legend:
[1] = system: UUO mice (kidney fibrosis); assay: Mouse unilateral ureteral obstruction (UUO) kidney fibrosis model; type: in vivo; conditions: male CD-1 mice, 30 mg/kg po twice daily D-1 to D6, compared to vehicle treated UUO group
Description: All animal handling and experimental protocols were approved by AbbVie's Institutional Animal Care and Use Committee (IACUC) and were conducted in accordance with the ethical principles for pain-related animal research of the American Pain Society. Male CD-1 mice (28-30 g, Charles River) were group housed 10 per cage, housed in a temperature controlled room with a 12/12-hour day/night cycle, with food (2018 Tekland Global 18% protein rodent diet, Harlan®) and water available ad libitum. Mice underwent either complete unilateral ureter obstruction (UUO) or sham surgery to the left kidney. Briefly, animals were anesthetized with isoflurane, and the left ureter was visualized via a flank incision. Using 6-0 silk sutures, the ureter was tied off at two points near the renal pelvis and then completely cut between ligations (ligation step omitted for sham operated animals). The abdominal muscle was sutured and the skin closed using standard wound clips. Test compound or vehicle was delivered twice daily (30 mg/kg, po) via oral gavage, starting on the day before surgery (D-1) and continuing through day 6 after surgery (D6), at which time animals were sacrificed and kidney tissues collected. […] Statistical significance was determined by using a one-way analysis of variance (ANOVA) followed by a Bonferroni post-hoc test and was conducted using GraphPad prism.

LPAR1 = molecular target: T1, LPAR1 (Homo sapiens, UniProt Q92633); assay: LPAR1 Arrestin Assay (arrestin reporter assay); type: cell-based; conditions: U2OS cells stably expressing the LPAR1 receptor, 200 nM 18:1 LPA (EC80); for Emax: read-out: Maximum Inhibition
T1 construct: host or cells: U2OS
Method in brief: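 U2OS cells stably expressing LPAR1 pretreated 1 h at 37° C with compound, then stimulated 5 h with 200 nM 18:1 LPA (EC80), 0.1% DMSO, 0.02% BSA. β-lactamase reporter read by CCF4-AM FRET (460/530 nm emission) after 2 h dye load; 12-point curves, duplicate, n≥3.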

T1 sequence (Q92633 whole entry): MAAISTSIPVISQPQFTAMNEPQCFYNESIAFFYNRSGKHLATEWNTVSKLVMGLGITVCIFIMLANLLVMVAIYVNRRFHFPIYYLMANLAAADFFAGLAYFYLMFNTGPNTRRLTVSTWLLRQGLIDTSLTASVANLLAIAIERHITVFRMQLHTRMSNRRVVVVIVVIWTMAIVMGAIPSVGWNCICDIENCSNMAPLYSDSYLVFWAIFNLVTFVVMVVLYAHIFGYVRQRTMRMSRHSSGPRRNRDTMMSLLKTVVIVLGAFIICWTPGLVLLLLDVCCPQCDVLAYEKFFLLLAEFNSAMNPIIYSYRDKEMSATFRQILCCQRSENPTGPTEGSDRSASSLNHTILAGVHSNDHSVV

Structure (SMILES)	reduction in Col1a1 expression [1] [%]	reduction in tubulointerstitial fibrosis as measured by PSR [1] [%]	IC50 (LPAR1) [nM]	Emax (LPAR1) [%]
COc1cc(OC)cc(C(=O)N(CCCCC(=O)O)CCCc2ccccc2)c1 [Example 7, 5-[(3,5-dimethoxybenzoyl)(3-phenylpropyl)amino]pentanoic Acid]	−46	−53	713	108
COc1cc(C(=O)N(CCCCC(=O)O)CCCc2ccccc2)cc(OC)c1C1CC1 [Example 35, 5-[(4-cyclopropyl-3,5-dimethoxybenzoyl)(3-phenylpropyl)amino]pentanoic Acid]	–	–	13	103
COc1cc(C(=O)N(CCCc2ccccc2)CCSC(C)CC(=O)O)cc(OC)c1C (centres unmarked) [Example 62, 3-({2-[(3,5-dimethoxy-4-methylbenzoyl)(3-phenylpropyl)amino]ethyl}sulfanyl)butanoic Acid]	–	–	39	114
